Results taken from PubChem BioAssay AID1918957 (Molecular Pharmacology Branch, DTP, NCI, 2023).
Calls of active or inactive are those of the source. Rule for the calls: active = viability on the fitted dose curve at most 10% of control; inactive = the rest.

Test system: NCI-H1876 complex spheroid viability
Assay: Anticancer human tumor NCI-H1876 cell line growth inhibition [LSD1];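 for IC50: spheroids exposed to compounds for one week before readout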;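 for viability, T/C: spheroids exposed to compounds for one week before readout; 100% = DMSO vehicle-treated spheroids so lower means fewer viable cells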
Conditions: for IC50: curve of first compound; for viability, T/C: stronger effect = lower value
How it was run: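 Drug combinations with the LSD1 inhibitor iadademstat tested on tumor cells co-cultured as spheroids with endothelial cells and mesenchymal stem cells. Concentrations descended in half-log increments from clinical Cmax or 10 microM.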

CC[C@@]1(O)C(=O)OCc2c1cc1n(c2=O)Cc2cc3c(CN(C)C)c(O)ccc3nc2-1 + NC1CCC(NC2CC2c2ccccc2)CC1
1.61 nM: IC50 (second compound 0.1 µM)
2.15 nM: IC50 (second compound 0.316 µM)
2.14 nM: IC50 (second compound 1 µM)
2.02 nM: IC50 (second compound 10 µM)
inactive: viability, T/C (second compound 0.1 µM, first compound 0.000316 µM) 105% | outcome (second compound 0.1 µM, first compound 0.001 µM) | viability, T/C (second compound 0.1 µM, first compound 0.00316 µM) 33.1% | viability, T/C (second compound 0.1 µM, first compound 0.01 µM) 23.1% | viability, T/C (second compound 0.1 µM, first compound 0.0316 µM) 12.1% | viability, T/C (second compound 0.1 µM, first compound 0.1 µM) 16.7% | viability, T/C (second compound 0.316 µM, first compound 0.000316 µM) 110% | viability, T/C (second compound 0.316 µM, first compound 0.001 µM) 94.2% | viability, T/C (second compound 0.316 µM, first compound 0.00316 µM) 27.5% | viability, T/C (second compound 0.316 µM, first compound 0.01 µM) 29.9% | viability, T/C (second compound 0.316 µM, first compound 0.0316 µM) 17.3% | viability, T/C (second compound 0.316 µM, first compound 0.1 µM) 14.7% | viability, T/C (second compound 1 µM, first compound 0.000316 µM) 113% | viability, T/C (second compound 1 µM, first compound 0.001 µM) 92.3% | viability, T/C (second compound 1 µM, first compound 0.00316 µM) 27.6% | viability, T/C (second compound 1 µM, first compound 0.01 µM) 31.8% | viability, T/C (second compound 1 µM, first compound 0.0316 µM) 18.4% | viability, T/C (second compound 1 µM, first compound 0.1 µM) 8.81% | viability, T/C (second compound 3.16 µM, first compound 0.000316 µM) 112% | viability, T/C (second compound 3.16 µM, first compound 0.001 µM) 102% | viability, T/C (second compound 3.16 µM, first compound 0.00316 µM) 25% | viability, T/C (second compound 3.16 µM, first compound 0.01 µM) 19.3% | viability, T/C (second compound 3.16 µM, first compound 0.0316 µM) 19% | viability, T/C (second compound 3.16 µM, first compound 0.1 µM) 9.21% | viability, T/C (second compound 10 µM, first compound 0.000316 µM) 112% | viability, T/C (second compound 10 µM, first compound 0.001 µM) 90.3% | viability, T/C (second compound 10 µM, first compound 0.00316 µM) 24.2% | viability, T/C (second compound 10 µM, first compound 0.01 µM) 24.3% | viability, T/C (second compound 10 µM, first compound 0.0316 µM) 20% | viability, T/C (second compound 10 µM, first compound 0.1 µM) 19.4%
2.18 nM: IC50 (second compound 3.16 µM)

CCc1c2c(nc3ccc(O)cc13)-c1cc3c(c(=O)n1C2)COC(=O)[C@]3(O)CC + NC1CCC(NC2CC2c2ccccc2)CC1
< 0.949 nM: IC50 (second compound 0.1 µM) | IC50 (second compound 0.316 µM) | IC50 (second compound 1 µM) | IC50 (second compound 3.16 µM) | IC50 (second compound 10 µM)
active: viability, T/C (second compound 0.1 µM, first compound 0.000949 µM) 8.41% | viability, T/C (second compound 0.1 µM, first compound 0.003 µM) 6.69% | viability, T/C (second compound 0.1 µM, first compound 0.00949 µM) 4.51% | viability, T/C (second compound 0.1 µM, first compound 0.03 µM) 17% | viability, T/C (second compound 0.1 µM, first compound 0.0949 µM) 0.42% | viability, T/C (second compound 0.1 µM, first compound 0.3 µM) 0.51% | viability, T/C (second compound 1 µM, first compound 0.000949 µM) 9.13% | viability, T/C (second compound 1 µM, first compound 0.003 µM) 7.08% | viability, T/C (second compound 1 µM, first compound 0.00949 µM) 3.54% | viability, T/C (second compound 1 µM, first compound 0.03 µM) 16.9% | viability, T/C (second compound 1 µM, first compound 0.0949 µM) 0.38% | viability, T/C (second compound 1 µM, first compound 0.3 µM) 0.41% | viability, T/C (second compound 3.16 µM, first compound 0.000949 µM) 7.88% | viability, T/C (second compound 3.16 µM, first compound 0.003 µM) 7% | viability, T/C (second compound 3.16 µM, first compound 0.00949 µM) 4.05% | viability, T/C (second compound 3.16 µM, first compound 0.03 µM) 8.64% | viability, T/C (second compound 3.16 µM, first compound 0.0949 µM) 0.31% | viability, T/C (second compound 3.16 µM, first compound 0.3 µM) 0.45%
inactive: viability, T/C (second compound 0.316 µM, first compound 0.000949 µM) 9.1% | viability, T/C (second compound 0.316 µM, first compound 0.003 µM) 7.39% | viability, T/C (second compound 0.316 µM, first compound 0.00949 µM) 26.4% | viability, T/C (second compound 0.316 µM, first compound 0.03 µM) 34.6% | viability, T/C (second compound 0.316 µM, first compound 0.0949 µM) 0.46% | viability, T/C (second compound 0.316 µM, first compound 0.3 µM) 0.47% | viability, T/C (second compound 10 µM, first compound 0.000949 µM) 9.76% | viability, T/C (second compound 10 µM, first compound 0.003 µM) 7.48% | viability, T/C (second compound 10 µM, first compound 0.00949 µM) 31.4% | viability, T/C (second compound 10 µM, first compound 0.03 µM) 8.78% | viability, T/C (second compound 10 µM, first compound 0.0949 µM) 15.6% | viability, T/C (second compound 10 µM, first compound 0.3 µM) 0.65%
